From PubChem BioAssay (NCI)
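Compound exposure: 48 hours, 5 concentrations, 96-well plates. GI50 marks 50% less growth. TGI: total growth inhibition.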

Tests used:
Assay in all cases: NCI tumour cell line growth inhibition, 48 h
HL-60(TB) leukemia = tested on: HL-60(TB) leukemia
HS 578T breast = tested on: HS 578T breast
HT29 colon = tested on: HT29 colon
IGROV1 ovarian = tested on: IGROV1 ovarian
MCF7 breast = tested on: MCF7 breast
MDA-MB-231 breast = tested on: MDA-MB-231 breast
NCI-H226 lung = tested on: NCI-H226 lung
SK-MEL-5 melanoma = tested on: SK-MEL-5 melanoma
U251 CNS = tested on: U251 CNS
UACC-62 melanoma = tested on: UACC-62 melanoma

| Structure (SMILES) | GI50 (HL-60(TB) leukemia) [µM] | TGI (HL-60(TB) leukemia) [µM] | GI50 (HS 578T breast) [µM] | TGI (HS 578T breast) [µM] | GI50 (HT29 colon) [µM] | TGI (HT29 colon) [µM] | GI50 (IGROV1 ovarian) [µM] | TGI (IGROV1 ovarian) [µM] | GI50 (MCF7 breast) [µM] | TGI (MCF7 breast) [µM] | GI50 (MDA-MB-231 breast) [µM] | TGI (MDA-MB-231 breast) [µM] | GI50 (NCI-H226 lung) [µM] | TGI (NCI-H226 lung) [µM] | GI50 (SK-MEL-5 melanoma) [µM] | TGI (SK-MEL-5 melanoma) [µM] | GI50 (U251 CNS) [µM] | TGI (U251 CNS) [µM] | GI50 (UACC-62 melanoma) [µM] | TGI (UACC-62 melanoma) [µM] |
| --- | --- | --- | --- | --- | --- | --- | --- | --- | --- | --- | --- | --- | --- | --- | --- | --- | --- | --- | --- | --- |
| Cc1cc(C)n(C(=O)c2nn(-c3ccc(Cl)cc3)cc2O)n1 | 39.6 | > 100 | 3.21 | > 100 | 32.9 | > 100 | 3.16 | 73.3 | 4.52 | > 100 | 8.8 | > 100 | 4.66 | 98.9 | 6.76 | 23.3 | 2.68 | > 100 | 3.46 | 18.6 |
| C#Cc1cccc(Oc2ccc(NC(=O)CCl)cc2)c1 | 63.4 | > 82.5 | > 82.5 | > 82.5 | > 82.5 | > 82.5 | 5.85 | 42.4 | 64.4 | > 82.5 | > 82.5 | > 82.5 | > 82.5 | > 82.5 | 33.6 | > 82.5 | > 82.5 | > 82.5 | > 82.5 | > 82.5 |
| CC1SC(c2c(Cl)cccc2Cl)N(NC(=O)C(O)c2ccccc2)C1=O (stereo not given) | 94 | > 100 | > 100 | > 100 | > 100 | > 100 | 62.9 | > 100 | 74.2 | > 100 | 31.6 | > 100 | > 100 | > 100 | 68.4 | > 100 | 54.1 | > 100 | 50.2 | > 100 |
| COc1cc(-c2cc(/C=C3\C(=O)Nc4ccccc43)[nH]n2)cc(OC)c1OC | 2.62 | 7.66 | 5.43 | 62.8 | 3.15 | 17.7 | 3.14 | 14.8 | 2.77 | 11 | 4.07 | 27.7 | 2.43 | 15.5 | 1.57 | 3.45 | 3.63 | 19.6 | 1.63 | 4.22 |
| O=C(Nc1ccc(Cl)cc1)c1cc(S(=O)(=O)Nc2nnc(-c3ccccc3)c(-c3ccccc3)n2)c(SCc2ccccc2)cc1Cl | 23.3 | > 68.3 | 20.6 | 71.1 | 28.3 | > 82 | 33.6 | > 95.4 | 29.6 | > 92 | 19.3 | > 56.2 | 27.7 | > 70.2 | 18.1 | 39.4 | 20.7 | 51.3 | 18.2 | 39.7 |
| COc1ccc(-c2nnc(N3CCN(C(=O)CN4CCN(c5ccc(Cl)cc5)CC4)CC3)nc2-c2ccc(OC)cc2)cc1 | 10.7 | 52.3 | 23.5 | > 100 | 4.74 | > 100 | 29.4 | > 100 | 5.82 | > 100 | 45.9 | > 100 | 46.8 | > 100 | 7.91 | > 100 | 15 | > 100 | 31.5 | > 100 |
